Results as given in patent publication US7183287B2, “Substituted pyrimidinones” (Pharmacia Corporation, priority 2003, dated 2007).

What follows are compounds tested against T1, human p38 kinase alpha (Homo sapiens, UniProt Q16539) (assay: p38 kinase alpha in vitro assay (phosphorylation of PHAS-I with 32P-ATP or of EGFRP with 33P-ATP)).
T1 construct: The coding region of the human p38a cDNA is obtained by PCR-amplification from RNA isolated from the human monocyte cell line THP.1; made in house; host or cells: E. coli DH10B (plasmid pMON 35802, pGEX 2T)
Format: biochemical
Description: The ability of compounds to inhibit human p38 kinase alpha is evaluated using two in vitro assay methods. In the first method, activated human p38 kinase alpha phosphorylates a biotinylated substrate, PHAS-I (phosphorylated heat and acid stable protein-insulin inducible), in the presence of gamma ^32P-ATP (^32P-ATP). PHAS-I is biotinylated prior to the assay and provides a means of capturing the substrate, which is phosphorylated during the assay. p38 Kinase is activated by MKK6. Compounds were tested in 10 fold serial dilutions over the range of 100 μM to 0.001 μM using 1% DMSO. Each concentration of inhibitor is tested in triplicate.
All reactions are carried out in 96 well polypropylene plates. Each reaction well contains 25 mM HEPES pH 7.5, 10 mM magnesium acetate and 50 μM unlabeled ATP. Activation of p38 is required to achieve sufficient signal in the assay. Biotinylated PHAS-I is used at 1–2 μg per 50 μl reaction volume, with a final concentration of 1.5 μM. Activated human p38 kinase alpha is used at 1 μg per 50 μl reaction volume representing a final concentration of 0.3 μM. Gamma ^32P-ATP is used to follow the phosphorylation of PHAS-I. ^32P-ATP has a specific activity of 3000 Ci/mmol and is used at 1.2 μCi per 50 μl reaction volume. The reaction proceeds either for one hour or overnight at 30° C.
Following incubation, 20 μl of reaction mixture is transferred to a high capacity streptavidin coated filter plate (SAM-streptavidin-matrix, Promega) prewetted with phosphate buffered saline. […] The plates are sealed and counted.
A second assay format is also employed that is based on p38 kinase alpha induced phosphorylation of EGFRP (epidermal growth factor receptor peptide, a 21 mer) in the presence ^33P-ATP. […] Compounds were evaluated in 50 μl reaction volumes in the presence of 25 mM Hepes pH 7.5, 10 mM magnesium acetate, 4% glycerol, 0.4% bovine serum albumin, 0.4 mM DTT, 50 μM unlabeled ATP, 25 μg EGFRP (200 μM), and 0.05 μCi ^33P-ATP. […] 150 μl of Microscint 40 is then added to each well of the Microlite plate, and the plate is sealed, mixed, and counted.

T1 sequence (Q16539 whole entry): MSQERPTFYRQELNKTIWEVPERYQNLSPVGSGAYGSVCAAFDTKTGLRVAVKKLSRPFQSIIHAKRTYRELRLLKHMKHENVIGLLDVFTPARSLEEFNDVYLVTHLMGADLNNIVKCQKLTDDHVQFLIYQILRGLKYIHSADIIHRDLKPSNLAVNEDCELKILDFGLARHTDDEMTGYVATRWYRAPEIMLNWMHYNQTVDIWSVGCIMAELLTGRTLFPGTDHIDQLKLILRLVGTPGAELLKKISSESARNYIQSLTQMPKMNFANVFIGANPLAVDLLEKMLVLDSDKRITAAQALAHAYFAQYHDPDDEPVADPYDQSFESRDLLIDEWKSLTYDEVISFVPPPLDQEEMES

IC50, < 5 µM:
O=c1c(Br)c(OCc2ccccc2)ncn1Cc1ccccc1, CNC(=O)c1ccc(C)c(-n2c(C)nc(OCc3ccc(F)cc3F)c(Br)c2=O)c1, COC(=O)c1ccc(C)c(-n2c(C)nc(OCc3ccc(F)cc3F)c(Br)c2=O)c1
